Reference: the CombiSolv-Exp solvation set (Vermeire and Green 2021)

Assay: solvent given as SMILES

C1CCCCC1
Settings	solvation free energy, 298 K [kcal/mol]
in BrC(Br)C(Br)Br	-3.42
in Brc1cccc2ccccc12	-3.66
in Brc1ccccc1	-4.07
in C1=Cc2ccccc2C1	-3.92
in C1CCC(C2CCCCC2)CC1	-4.09
in C1CCNC1	-4.04
in C1CCNCC1	-4.32
in C1CCOC1	-4.23
in C1COCCO1	-3.66
in C=CCCCC	-4.22
in C=CCCCCCC	-4.18
in C=CCCCCCCCC	-4.12
in C=CCCCCCCCCCCCCCC	-3.89
in CC1CCS(=O)(=O)C1	-2.73
in CC1COC(=O)O1	-2.65
in CC#N	-3.03
in CC(=O)CC(C)C	-3.92
in CC(=O)O	-3.23
in CC(=O)OCc1ccccc1	-3.53
in CC(=O)c1ccccc1	-3.52
in CC(C)(C)O	-3.67
in CC(C)=O	-3.58
in CC(C)CC(C)(C)C	-4.15
in CC(C)CCCC(C)CCCC(C)CCCCC(C)CCCC(C)CCCC(C)C	-3.87
in CC(C)CCO	-3.77
in CC(C)CO	-3.93
in CC(C)O	-3.52
in CC(C)OC(C)C	-4.18
in CCBr	-4.31
in CCC#N	-3.57
in CCC(C)(C)OC	-4.3
in CCC(C)=O	-3.79
in CCC(C)O	-3.64
in CCCC#N	-3.45
in CCCC(=O)OCC	-3.93
in CCCC(C)=O	-3.82
in CCCCC	-4.25
in CCCCC#N	-3.58
in CCCCC(CC)COC(=O)CCCCC(=O)OCC(CC)CCCC	-3.77
in CCCCC(CC)COC(=O)c1ccccc1C(=O)OCC(CC)CCCC	-3.6
in CCCCCC	-4.24
in CCCCCC#N	-3.66
in CCCCCC(C)=O	-3.86
in CCCCCCC	-4.2
in CCCCCCCC	-4.18
in CCCCCCCCC	-4.13
in CCCCCCCCC=CCCCCCCCC(=O)OCC(COC(=O)CCCCCCCC=CCCCCCCCC)OC(=O)CCCCCCCC=CCCCCCCCC	-3.86
in CCCCCCCCCC	-4.11
in CCCCCCCCCCCC	-4.03
in CCCCCCCCCCCCCC	-3.91
in CCCCCCCCCCCCCCCC	-3.97
in CCCCCCCCCCCCO	-3.7
in CCCCCCCCCCO	-3.42
in CCCCCCCCN(CCCCCCCC)CCCCCCCC	-3.86
in CCCCCCCCO	-3.73
in CCCCCCCO	-3.72
in CCCCCCO	-3.75
in CCCCCCOC(C)=O	-3.93
in CCCCCN(CCCCC)CCCCC	-4.01
in CCCCCO	-3.71
in CCCCCl	-4.17
in CCCCN(C=O)CCCC	-3.67
in CCCCN(CCCC)CCCC	-3.92
in CCCCO	-3.7
in CCCCOC	-4.2
in CCCCOC(=O)c1ccccc1C(=O)OCCCC	-3.73
in CCCCOC(C)=O	-3.91
in CCCCOCC	-4.07
in CCCCOCCCC	-4.13
in CCCO	-3.59
in CCCOCCC	-4.12
in CCN1CCCC1=O	-3.39
in CCN(CC)C(C)=O	-3.55
in CCN(CC)CC	-4.23
in CCNC(C)=O	-3.41
in CCNC=O	-3.22
in CCO	-3.5
in CCOC(=O)c1ccccc1C(=O)OCC	-3.24
in CCOC(C)(C)C	-4.17
in CCOC(C)=O	-3.78
in CCOCC	-4.19
in CCOCCO	-3.41
in CCOCCOCCOCC	-3.81
in CCOc1ccccc1	-3.89
in CN1CCCC1=O	-3.18
in CN1CCCCC1=O	-3.37
in CN1CCN(C)C1=O	-3.07
in CN(C)P(=O)(N(C)C)N(C)C	-3.47
in CNC(C)=O	-3.26
in CNC=O	-2.93
in CO	-3.25
in COC(C)(C)C	-4.16
in COC(C)=O	-3.61
in COCCO	-3.15
in COc1ccccc1	-3.84
in CS(C)=O	-2.5
in Cc1ccc(C)cc1	-4.17
in Cc1cccc2ccccc12	-3.8
in Cc1cccc(O)c1	-3.42
in Cc1ccccc1	-4.2
in Cc1ccccn1	-3.91
in ClC(Cl)(Cl)Cl	-4.44
in ClC(Cl)C(Cl)Cl	-3.76
in ClC(Cl)Cl	-4.33
in ClCCCl	-3.93
in ClCCl	-4.1
in Clc1cccc2ccccc12	-3.88
in Clc1ccccc1	-4.22
in FC(F)(F)C(F)(F)C(F)(F)C(F)(F)C(F)(F)C(F)(F)C(F)(F)C(F)(F)F	-2.65
in FC(F)(F)C(F)(F)C(F)(F)C(F)(F)C(F)(F)C(F)(F)F	-2.71
in Fc1ccccc1	-4.12
in ICI	-3.06
in N#CCCCC#N	-2.17
in N#CCCCCC#N	-2.51
in N#CCCOCCC#N	-2.24
in N#CCc1ccccc1	-3.16
in N#Cc1ccccc1	-3.54
in NC=O	-1.36
in NCCO	-1.69
in NCc1ccccc1	-3.46
in Nc1ccccc1	-3.07
in O	1.22
in O=C1CCCCC1	-3.85
in O=C1CCCO1	-2.81
in O=C(O)C(Cl)Cl	-3.29
in O=CN1CCOCC1	-2.65
in O=Cc1ccco1	-3.01
in OC1CCCCC1	-3.69
in OCCCCCO	-2.61
in OCCCCO	-2.53
in OCCCO	-2.19
in OCCO	-1.5
in OCCOCCO	-2.16
in OCCOCCOCCO	-2.26
in OCCOCCOCCOCCO	-2.34
in OCCS	-2.58
in OCCc1ccccc1	-3.32
in OCc1ccccc1	-3.23
in OCc1ccco1	-2.94
in S=C=S	-4.49
in c1ccc2c(c1)CCCC2	-4.1
in c1ccc2ncccc2c1	-3.61
in c1ccc(C2CCCCC2)cc1	-4.03
in c1ccccc1	-4.23
in c1ccncc1	-3.75

C=C(C)C1CCC(C)C(=O)C1 (stereo not given)
Settings	solvation free energy, 298 K [kcal/mol]
in O	-3.75

CCC[N+](=O)[O-]
Settings	solvation free energy, 298 K [kcal/mol]
in CC(C)CC(C)(C)C	-3.94
in CCCCCC	-4.05
in CCCCCCC	-3.97
in CCCCCCCC	-3.95
in CCCCCCCCCCCCCCCC	-3.79
in CCCCCCCCO	-4.44
in O	-3.38
in [2H]O[2H]	-3.44

O=Nc1ccc2ccccc2c1O
Settings	solvation free energy, 298 K [kcal/mol]
in O	-8.79

COC=O
Settings	solvation free energy, 298 K [kcal/mol]
in C=CCCCCCCCCCCCCCC	-1.95
in CC(=O)N(C)C	-3.41
in CCCCCCCCCCCCCCCC	-1.94
in CCCCN(C=O)CCCC	-2.97
in CCOCCO	-3.08
in CN1CCCC1=O	-3.71
in CNC(C)=O	-3.15
in CS(C)=O	-3.28
in NC=O	-3.07
in O	-2.78
in [2H]O[2H]	-2.82

O=O
Settings	solvation free energy, 298 K [kcal/mol]
in Brc1ccccc1	1.16
in C1CCCCC1	0.75
in C1CCOC1	0.82
in C1COCCO1	1.1
in CC(C)(C)O	0.78
in CC(C)=O	0.76
in CC(C)CC(C)(C)C	0.51
in CC(C)CO	0.89
in CC(C)O	0.89
in CCC(C)=O	0.76
in CCC(C)O	0.91
in CCCC(C)=O	0.81
in CCCCC(C)=O	0.86
in CCCCCC	0.59
in CCCCCCC	0.64
in CCCCCCCC	0.7
in CCCCCCCCC	0.73
in CCCCCCCCCC	0.77
in CCCCCCCCCCC	0.79
in CCCCCCCCCCCC	0.83
in CCCCCCCCCCCCC	0.87
in CCCCCCCCCCCCCC	0.89
in CCCCCCCCCCCCCCC	0.92
in CCCCCCCCCCCCCCCC	0.94
in CCCCCCCCCCCO	1.1
in CCCCCCCCCCO	1.09
in CCCCCCCCCO	1.06
in CCCCCCCCO	1.04
in CCCCCCCO	1.02
in CCCCCCO	0.98
in CCCCCO	0.95
in CCCCO	0.93
in CCCCOCCCC	0.78
in CCCO	0.9
in CCCOCCC	0.65
in CCO	0.85
in CCOC(C)=O	0.9
in CCOCC	0.48
in CNC=O	1.12
in CO	0.82
in COC(C)=O	0.77
in Cc1ccc(C)cc1	0.83
in Cc1cccc(C)c1	0.85
in Cc1ccccc1C	0.88
in ClC(Cl)(Cl)Cl	0.71
in ClC(Cl)Cl	0.97
in ClCCCl	1.09
in ClCCl	0.9
in Clc1ccccc1	1
in Fc1ccccc1	0.56
in Ic1ccccc1	1.3
in O	2.06
in O=C1CCCC1	1.1
in O=C1CCCCC1	1.13
